Experimental data as given in patent publication US7198782B2, “Method for the treatment of diabetes” (priority 1998, dated 2007).

How the values were obtained:
[1] = system: secretion of gastric acid; assay: Inhibitory effect on the secretion of gastric acid in rats (Example 7); format: in vivo, rats (Wister line); conditions: peptide 10 μg/kg with gastrin 4 μg/kg, hypodermic injection, gastric juice pH 10 minutes later, control pH 3.2 / 3.1
Description: The inhibitory effect on the secretion of gastric acid was evaluated using rats (Wister line), by dissolving in physiological saline, the peptides synthesized in Example 6 and gastrin, a stimulator of gastric acid secretion, hypodermically injecting the previous solution, and measuring the secretion of gastric acid 10 minutes later. Gastrin was administered to obtain a dose of 4 μg/kg and the peptides of the invention were administered to obtain a dose of 10 μg/kg. The rats were immobilized on a fixator, their gastric juice was sampled by inserting a probe through the mouth into the stomach, and the pH was measured to evaluate the secretion of gastric acid. When the secretion of gastric acid was compared between the reference group with no substance administered and the administered group, the following was obtained for the inhibition on the secretion of gastric acid.

BxPC-3 cells [2] = assay: Stimulating effect on insulin secretion, BxPC-3 cells (Example 3); format: cell-based, human; conditions: supernatant of BxPC-3 cells, 0.01 mg/well, 24 hours; control 37.6
Description: BxPC-3 cells which are insulin producing cells derived from a human pancreas (source: Dainippon Pharmaceutical Co.,Ltd. ), were cultured in RPMI 1640 media containing 10% calf fetal serum, and grown with 5% carbon dioxide gas in a humidified incubator at 37° C. The cells were treated with trypsin prior to seeding with a density of 1×10^5/well; when they reached confluency, the peptide of the invention synthesized in Example 2, the peptides A and B, which are unrelated to the invention and whose activities are unknown, as well as a control (physiological saline) were added at 0.01 mg/well, and the cells were cultured for 24 hours. Then, the concentrations of insulin present in the supernatents were measured by colorimetry with an insulin assaying kit (source: Shibayagi Co.,Ltd.).

HIT cells = assay: Stimulation of insulin production by insulin producing cells, HIT cells (Example 5); format: cell-based, hamster; conditions: for rate of stimulation for the production of insulin (%): HIT cells, 12 hours, no substance added = 100%
Description: (§1) HIT cells, which are insulin producing hamster pancreatic cells, and BxPC-3 cells, which are human pancreatic cells (source: Dai Nippon Seiyaku), were cultured in RPMI 1640 media (source: Dai Nippon Seiyaku) containing 10% calf fetal serum, and grown with 5% carbon dioxide gas in a humidified incubator at 37° C. The cells were treated with trypsin for seeding 96-well culture plates with a density of 1×10^4/well; when the cells reached confluency, the media was exchanged to a F12 serum-free media and the cells were cultured for 8 hours. Then, the peptides of the invention produced in Example 4 were dissolved in serum-free RPMI 1640 media; various doses of the peptides indicated by the sequence number 1 for the HIT cells, and various doses of the peptides indicated by the sequence number 5 for the BxPC-3 cells, were added to the wells and the cultures were further maintained for 12 hours. After the cultures have been performed, the stimulatory effects of the peptides of the invention on the production of insulin by the cells were measured by the insulin immunoassay, to seek stimulatory effects on production in comparison to the non-treated groups. Also, the insulin immunoassay, and the calculations for the rates of stimulation for the production of insulin were actually performed as follows. Various dilutions of the supernatents from the cell culture media were added to the wells coated with immobilized anti-insulin antibodies, and reacted with anti-insulin antibody solutions, according to the protocol of the insulin assay kit commercialized by Shibayagi (Ltd.). The detection was by reacting the biotin labeling the antibodies with the steptavidin-conjugated peroxydase and measuring the coloration catalyzed by the peroxydase. The concentration of insulin was calculated from a standard curve for insulin. When examining the rates of stimulation for the production of insulin in the groups with various doses added, by taking the rate of stimulation for the production of insulin in the reference group with no substance added as 100%, the following was obtained.

BxPC-3 cells [3] = assay: Stimulation of insulin production by insulin producing cells, BxPC-3 cells (Example 5); format: cell-based, human; conditions: 12 hours, no substance added = 100%
Description: as §1

GH3 cells = assay: Stimulation of growth hormone production by growth hormone producing cells (Example 9); format: cell-based, Hamster; conditions: 3 days, no peptides added = 100%
Description: Hamster-derived GH3 cells (source: IFO, deposition No. 50105), which are growth hormone-producing hypophyseal cells, were grown in an F12 media (source: Dai Nippon Seiyaku) containing 15% calf fetal serum, and grown with 5% carbon dioxide gas in a humidified incubator at 37° C. The cells were treated with trypsin for seeding 96-well culture plates with a density of 1×10^4/well; when the cells reached confluency, the media was exchanged to a 15% serum F12 media and the cells were cultured for 12 hours. Then, the peptides of the invention produced in Example 7 were dissolved in 15% serum F12 media to add various doses of the peptides to the wells, and the cultures were further maintained for 3 days. After the cultures have been performed, the stimulatory effects of the peptides on the production of growth hormones by the cells were measured by the growth hormone immunoassay, to examine stimulatory the effects on the production, in comparison with the non-treated groups. Also, the growth hormone immunoassay was performed with a method of the art, the sandwich ELISA, i.e., various dilutions of the supernatents from the cell culture media were added to wells coated with immobilized anti-growth hormone antibodies, and reacted for 180 minutes at room temperature, washed before further addition of anti-growth hormone antibodies labeled with peroxydase, and reacted for 60 minutes at room temperature. After washing, the coloring reaction catalyzed by the peroxydase was measured by measuring the absorbance. The concentration of growth hormone was examined based on standard curves obtained by performing the same sandwich ELISA using already known concentrations of growth hormone. When examining the rates of stimulation for the production of growth hormones in the groups with various doses added, by taking the rate of stimulation for the production of growth hormone for the reference group with no peptides added as 100%, the following was obtained.

Q: “Sequence No. 3: peptide predicted by comparing the cDNA sequences of the gastrin receptor; gastric acid secretion regulator (GGAGP; Artificial polypeptide which regulates insulin production.)” was tested. Which “Gastric juice pH” value [1] did it give?
A: 5.3 pH

Q: How did the “Gastric juice pH” value [1] turn out when “Sequence No. 4: peptide predicted by comparing the cDNA sequences of the gastrin receptor; gastric acid secretion regulator (MSVGGNMLIIV; Artificial polypeptide having inhibitory effect on gastric acid secretion)” was run?
A: 4.8 pH

Q: How did the insulin concentration (BxPC-3 cells [2]) turn out when “peptide of the invention: peptide synthesized in Example 2, printed as having the amino acid sequence of sequence number 2 (GIP receptor derived insulin production regulator) (VGRDPAAAPALWRRRGTAPPLSAIVSQV; Artificial peptide which regulates insulin production)” was run?
A: 148 µg/mL

Q: Which results are given for “sequence number 1: peptide of the missing (spliced) region predicted from glucagon receptor cDNAs; increases insulin production (PKAPSAQ; Artificial polypeptide which inhibits insulin production.)”?
A: rate of stimulation for the production of insulin (%) (HIT cells; 0.01 μg/well): 102.8%; rate of stimulation for the production of insulin (%) (HIT cells; 0.1 μg/well): 131.6%; rate of stimulation for the production of insulin (%) (HIT cells; 1 μg/well): 184.9%; rate of stimulation for the production of insulin (%) (HIT cells; 10 μg/well): 203.1%; production of insulin by insulin producing cells (HIT cells; summary in the description, cells and dose not named): increased significantly

Q: For “sequence number 5: peptide predicted from glucagon receptor cDNAs, variant of sequence number 1; increases insulin production (PQVPSAQ; Artificial polypeptide having inhibitory effects on insulin secretion)”, which “rate of stimulation for the production of insulin (%)” value (shortened to “rate of stimulation … (%)”) (BxPC-3 cells [3]; 0.01 μg/well) is on record?
A: 110.9%

Q: What about the “rate of stimulation … (%)” value (BxPC-3 cells [3]; 0.1 μg/well) of the same substance?
A: 123.3%

Q: And the “rate of stimulation … (%)” value (BxPC-3 cells [3]; 1 μg/well)?
A: 198.2%

Q: And the “rate of stimulation … (%)” value (BxPC-3 cells [3]; 10 μg/well)?
A: 181.1%

Q: Which results are given for “sequence number 6: peptide predicted by comparing the amino acid sequences of somatostatin receptor; growth hormone production regulator (PSCQWVQAPACQ; Artificial polypeptide which promotes growth hormone secretion.)”?
A: stimulation rate of growth hormone production (%) (GH3 cells; 0.01 μg/well): 101.2%; stimulation rate of growth hormone production (%) (GH3 cells; 0.1 μg/well): 124.1%; stimulation rate of growth hormone production (%) (GH3 cells; 1 μg/well): 175.6%; stimulation rate of growth hormone production (%) (GH3 cells; 10 μg/well): 190.4%
